Assay results taken from US4075206A, “Substituted pyrroloquinoxalinones and diones” (Eli Lilly and Company, priority 1977, dated 1978).

Tests used:
[1] = test system: collagen-induced platelet aggregation; assay: Platelet aggregation test: collagen-induced platelet aggregation after oral dosing (method of Hermann et al.); assay type: in vivo, guinea pigs; conditions: Cavia porcellus, 1 h, 2 doses, time zero and 2 hours later, blood 60 minutes after last dose, active = about 50% inhibition of collagen-induced aggregation, N.A. = not active at 100 mg/kg × 2, read-out: P.A. (lowest active dose in the platelet aggregation test)
Procedure: Certain of the compounds of this invention are also platelet aggregation inhibitors and the results of testing for this activity are also included in Table I. The platelet aggregation test used involves the effect of a drug upon collagen-induced platelet aggregation using the method of Hermann et al., Proc. Soc. Exp. Biol. Med. 136, 548 (1972). According to this procedure, 300- 400 g. guinea pigs are used and the compound is administered by the oral route in 2 doses, at time zero and again 2 hours later, at a series of graded dose levels to groups of 4 pigs each. One group is maintained as a control group. Blood is removed by heart puncture 60 minutes after the last dose, and a platelet-rich plasma prepared therefrom. A stock collagen solution is prepared by solubilizing bovine Achilles tendon with acetic acid. The stock solution contains 0.25 percent collagen, has a pH of 2.8 and is kept under refrigeration. Prior to use, 0.4 ml. of 1M aqueous sodium hydroxide is added to a 1 ml. aliquot of the stock solution, followed by further dilutions with saline (1:2 1:4, 1:8, 1:16, 1:32, etc.) A standard collagen challenge was used, 0.05 ml. of 1:45 dilution, to induce platelet aggregation and the aggregation response of the drugged guinea pigs was compared to that of the controls to determine inhibition of aggregation. The lowest active dose in mg./kg. × 2 is then determined, "active" being defined as giving about 50% inhibition of collagen-induced aggregation. (Activity was determined by computor printout with significance at the 95 percent confidence level being attained at about the 50 percent inhibition level). In Table 1, column 1 gives the name of the compound, column 2, the ED50 calculated as set forth above and column 3, the percent inhibition at a 50 mg/kg dose level where an ED50 was not determined and column 4, the lowest active dose in the platelet aggregation test. N. A. indicates "not active" at 100 mg/kg × 2 in this latter test.

[2] = test system: erythema produced by an ultra-violet light source on guinea pig skin; assay: Anti-inflammatory: block of UV-light-induced erythema on guinea pig skin (method of Windner et al.); assay type: in vivo, albino guinea pigs; conditions: oral; for Inhibition at 50 mg/kg dose: percent inhibition of erythema at 50 mg/kg where an ED50 was not determined; for ED50: Cavia porcellus, dose producing 50 percent inhibition of the erythemic response, groups of four guinea pigs
Procedure: The compounds of this invention are anti-inflammatory and anti-thrombotic agents. […] Int. Pharmacodyn, 116, 261 (1958). In this procedure, albino quinea pigs weighing 225- 300 gms. are shaved on the back and chemically depilated 18 to 20 hours before initiation of the test procedures. Animals in groups of 4 are given predetermined dosages of the drug under test with one group being maintained as a control group. The drug is administered by the oral route as a suspension in 1 percent aqueous sodium carboxymethylcellulose. The control animals receive only the suspending median. After having being given the drug or suspension medium only, each group of animals is exposed to a high-intensity ultra-violet light for a predetermined period of time, the ultra-violet light being placed in contact with the depilated skin area on the animals' back. A gummed paper reinforcement is affixed to the lamp lens to provide an unexposed area of contrast for grading the light-produced erythema.
Beginning one hour after exposure and thereafter at half-hour intervals for another 1.5 hours, a trained observer grades erythema using an arbitraty scoring system based upon the degree of contrast and redness formed. […] The following scoring system is used: […]
______________________________________
Score Appearance of Exposed Area
0 No redness and no contrast
1 Slight redness with a faint
2 Slight to moderate redness
with a distinct outline
3 Marked redness with a distinct
Total scores from each treatment group of four guinea pigs are compared to the control treatment, and the percent inhibition calculated as follows: [formula]
If desired, a dose-response graph can be obtained by plotting dose versus percent inhibition, each point representing the average of one treatment group of four guinea pigs. The dose (ED50) in mg/kg cm.^2) which produced a 50 percent inhibition of the erythemic response for the particular compound tested can then be obtained, either directly or by extrapolation. Table I below summarizes the results obtained from testing representative compounds of the invention by the foregoing method.

SMILES | minimal effective dose [1] | Inhibition at 50 mg/kg dose [2] | ED50 [2]
Cc1cc2c3c(c1)C(c1ccccc1)C(=O)N3CC(=O)N2 (centres unmarked) [6-phenyl-8-methyl-1H-pyrrolo[1,2,3-de]quinoxalin-2,5(3H,6H)-dione] | 3.12 mg/kg | 51% | –
CCC1C(=O)Nc2cccc3c2N1C(=O)C3c1ccccc1 (centres unmarked) [6-phenyl-3-ethyl-1H-pyrrolo[1,2,3-de]quinoxalin-2,5(3H,6H)-dione] | 50 mg/kg | – | 1 mg/kg
CC1C(=O)Nc2cccc3c2N1C(=O)C3c1ccccc1 (centres unmarked) [6-phenyl-3-methyl-1H-pyrrolo 1,2,3-de]quinoxalin-2,5(3H,6H)-dione] | 1.56 mg/kg | – | 2.5 mg/kg
CCN1C(=O)CN2C(=O)C(c3ccccc3)c3cccc1c32 (centres unmarked) [1-Ethyl-6-phenyl-1H-pyrrolo[1,2,3-de]quinoxalin-2,5(3H,6H)-dione] | 100 mg/kg | – | 33 mg/kg
O=C1CN2C(=O)C(c3ccccc3)c3c2c(cc2ccccc32)N1 (centres unmarked) [6-phenyl-1H-benzo[g]pyrrolo[1,2,3-de]quinoxalin-2,5(3H,6H)-dione] | – | 42% | –
O=C1CN2C(=O)C(c3ccc(F)cc3)c3cccc(c32)N1 (centres unmarked) [6-(p-fluoro)phenyl-1H-pyrrolo[1,2,3-de]quinoxalin-2,5 (3H,6H)-dione] | 12.5 mg/kg | – | 7.7 mg/kg
O=C1CN2C(=O)C(c3ccccc3)(c3ccccc3)c3cccc(c32)N1 [6,6-diphenyl-1H-pyrrolo-[1,2,3-de]quinoxalin-2,5 (3H,6H)-dione] | – | – | 36 mg/kg
O=C1CCN2C(=O)C(c3ccccc3)c3cccc(c32)N1 (centres unmarked) [3,4-DIHYDRO-7-PHENYL-1H-PYRROLO[ 1,2,3-ef]-BENZO-[ f]DIAZEPINE-2,6(1H,7H)-DIONE] | 50 mg/kg | – | 12 mg/kg
O=C1CN2C(=O)C(c3ccc(Cl)cc3)c3cccc(c32)N1 (centres unmarked) [6-(4-chlorophenyl)-1H-pyrrolo[1,2,3-de]-quinoxalin-2,5(3H,6H)-dione] | – | 48% | –
CN1C(=O)CN2C(=O)C(c3ccccc3)c3cccc1c32 (centres unmarked) [1-Methyl-6-phenyl-1H-pyrrolo 1,2,3-de]quinoxalin-2,5(3H,6H)-dione] | 3.12 mg/kg | – | 4.4 mg/kg
O=C1CN2C(=O)C(c3ccccc3)c3cc(Cl)cc(c32)N1 (centres unmarked) [6-phenyl-8-chloro-1H-pyrrolo[1,2,3-de]quinoxalin-2,5(3H,6H)-dione] | 100 mg/kg | 50% | –
O=C1CN2C(=O)C(c3ccccc3)c3cccc(c32)N1 (centres unmarked) [6-phenyl-1H-pyrrolo[1,2,3-de]quinoxalin-2,5(3H,6H)-dione] | 1.56 mg/kg | – | 0.9 mg/kg
CCCN1C(=O)CN2C(=O)C(c3ccccc3)c3cccc1c32 (centres unmarked) [1-n-Propyl-6-phenyl-1H-pyrrolo[1,2,3-de]quinoxalin-2,5(3H,6H)-dione] | – | – | 47.5 mg/kg
COc1cc2c3c(c1)C(c1ccccc1)C(=O)N3CC(=O)N2 (centres unmarked) [6-phenyl-8-methoxy-1H-pyrrolo[1,2,3-de]quinoxalin-2,5(3H,6H)-dione] | 6.25 mg/kg | – | 45 mg/kg
O=C1C(c2ccccc2)c2cccc3c2N1CCN3 (centres unmarked) [2,3-dihydro-6-phenyl-1H-pyrrolo[1,2,3-de]quinoxalin-5(6H)-one] | 100 mg/kg | – | 7.9 mg/kg
